Assays:
[1] = system: 3×TgAD and non-Tg mice; test: Trace eyeblink conditioning, learning and memory; assay type: in vivo, mouse; settings: for memory performance nine days after learning trial / learning performance: 3 months; for learning performance: 10 mg/kg s.c. once
Experimental: Under deep anesthesia by intraperitoneal (i.p.) injection with ketamine (100 mg/kg i.p.) and xylazine (25 mg/kg i.p.), a 4 pin head stage (DIGI-KEY) was cemented to the skull of 3 month old male mouse with dental acrylic. The connector has four Teflon-coated stainless steel wires and one bare stainless steel wire (0.003″ bare and 0.0055″ coated, A-M Systems, Inc.). The bare wire was attached via a gold pin (Time Electronics) to the head stage. Coated wires were implanted s.c. in the orbicularis oculi dorsal to the left upper eyelid to record the EMG and s.c. periorbitally to deliver the shock US (3). All animals were then placed on a warm isothermal pad after surgery to recovery for 30 min. After surgery, mice were individually housed, provided with ad libitum access to food and water, and maintained on a 12 hr light/dark cycle.
After one week of acclimation to the colony room, mice with no obvious adverse responses to surgery were randomly assigned to an experimental condition. Mice were injected subcutaneously (s.c.) with 10 mg/kg THP or vehicle followed one hour later with an IP injection of BrdU (100 mg/kg). Following injection of test compound, mice were returned to their home cage for 7 days prior to onset of behavioral testing.
During the first day of training, mice were placed within Plexiglas cylinders in a sound-attenuated chamber and were habituated to the test environment for one session consisting of 30 stimulus-free trials at 30-60 sec inter-trial intervals while spontaneous eye-blink activity was recorded using electromyographic (EMG) activity recorded from the obicularis oculi dorsal to the orbit during each trial. EMG activity was rectified, and integrated using custom designed computational Labview routines.
Following habituation to the test environment mice underwent a learning phase and were trained for five days. Mice were trained by pairing delivery of a tone (CS, 250 msec, 2 kHz, 85 dB) as the conditioned stimulus followed by a 250 msec period of no stimuli, followed by the periobital shock as the unconditioned stimulus (US, 100 msec). Mice received two blocks of 30 trials per day (30-60-sec inter-trial intervals, 3-4-h inter-block intervals). This trace eye-blink conditioning paradigm is subthreshold for inducing neurogenesis. The unpaired group received random tone at the same magnitude as the paired conditioning and shock with 15-30 sec as inter-trial intervals and a total of 60 trials for one session per day. Shock intensity was adjusted daily for each mouse to elicit a head-movement response. Following the learning phase, mice were returned to their home cage for eight days followed on the ninth day by a single session to assess memory of the conditioned response. The percentage of CR was computed as the ratio of the number of CRs to the total number of valid trials. Animals were perfused at the end of the memory trial day.
To determine if there was a functional consequence of THP-induced neurogenesis, the impact of THP on both the learning and memory of a behavioral task shown to be dependent upon the generation of new neurons in the dentate gyrus, delayed trace conditioning was assessed. 3×TgAD and non-Tg background mice were prepared for behavioral testing and received a single s.c. injection of THP (10 mg/kg once) or vehicle 7 days prior to start of the learning trial. After injection, mice were housed for 7 days before the training process started. The rationale for the 7 day interim between exposure to THP and the start of the behavioral experiment was to allow time for the proliferation, migration and integration of newly generated neurons into the dentate gyrus.
Following the 7 day interim period, the behavioral testing commenced with a 5 day (2×30 trials/day) training learning phase to assess rate and magnitude learning performance. After the learning trial, mice were returned to their home cage for another 9 day period and subsequently tested for memory of the learned association. […]

[2] = system: reactive microglial cells; test: Microglial reaction (OX42 Western blot, Iba1 staining); assay type: in vivo, mouse
Experimental: Further studies were conducted using a dosing regime of once a week for six months administered subcutaneously. Three and six months old 3×Tg-AD and age-matched non-Tg mice were chosen for the experiments, since AD pathology (Aβ) starts development at 3-month and abundant accumulation at 6-months. Allopregnanolone was subcutaneously (s.c.) administrated with 10 mg/kg once per week for 6 months. For neurogenesis and neurosurvival study, BrdU, IdU and CIdU were intraperitoneal (i.p.) injected at the first 5 days, mid 5 days and 5 days before sacrifice during 6-month treatment. After 6 months of allopregnanolone treatment, mice, at 9- and 12-month old, were sacrificed.
Western blot analysis was conducted with rabbit polyclonal anti-CD11b/c (OX42) which recognizes reactive microglial cells.

[3] = system: mouse hippocampal neuron cell line (HT-22); test: FACS of MuLV-GFP infected HT-22 cells; assay type: cell-based; settings: THP 250 nM
Experimental: (§1) Having determined that THP increases the expression of the cell proliferating markers, a determination was sought as to whether the increase in cell proliferation markers translated into an increase in neuronal number. […] As shown in FIGS. 6A-6C, THP increases neuron number as assessed in MuLV-GFP infected mouse neurons. The effect of THP on HT-22 cells proliferation was detected on MuLV infected cells.
FIG. 6C summarizes the FACS results. V=vehicle; THP (250 nM).

[4] = system: hippocampal neural cells; test: 3H-thymidine uptake in cultured hippocampal neural cells; assay type: cell-based, rat; settings: from about 0.1 nm to about 250 nm THP
Experimental: Biochemical analyses of 3H-thymidine uptake, as a measure of DNA synthesis, were used as the experimental vehicle to confirm the morphological observations described in examples 1 and 2. […] Thus, the range for the neurogenic effect of THP on neural cells is quite is sensitive and quite broad.
For these experiments, cultured hippocampal neural cells, derived from embryonic day 18 rat fetuses, were allowed to adhere to polylysine coated plastic cover-slips for 40 min in serum containing medium. Following adhesion, neurons were exposed to […] 3H-thymidine in the presence or absence of 100-500 nM THP and allowed to incubate at 37° C. for 24 hours in the absence or presence of the indicated steroids. Data are expressed as mean+SEM, *p<. 05,**p<0.01, ***p<0.001.
The time course of THP-induced 3H-thymidine incorporation in hippocampal neuronal cells is shown in FIG. 9 where cultured hippocampal nerve cells, derived from embryonic day 18 rat fetuses, were allowed to adhere to polylysine coated plastic cover-slips for 40 min in serum containing medium. Following adhesion, serum containing medium in the presence or absence of 10-250 nM THP plus […] 3H-thymidine and allowed to incubate at 37 for 1, 8 or 24 hours. Data are expressed as mean±SEM, *p<0.05,**p<0.01,***p<0.001.

[5] = system: hippocampal neurons; test: Total number of hippocampal neurons; assay type: cell-based, rat; settings: primary hippocampal neurons
From the text: as §1

CC(=O)[C@H]1CC[C@H]2[C@@H]3CC[C@H]4C[C@H](O)CC[C@]4(C)[C@H]3CC[C@]12C [THP, 3α-hydroxy-5α-pregnan-20-one]
memory performance nine days after learning trial ([1]; 3×TgAD mice): significant increase in memory
learning performance ([1]; 3×TgAD mice): significantly increased the learning performance
learning level (conditioned response) at the end of training ([1]; 3×TgAD mice, 6-months-old, 10 mg/kg): 39.2±9.2%
memory test 9 days after acquisition phase ([1]; 3×TgAD mice, 6 months): significantly increased the retention of the conditioned response rate
final level of learning ([1]; 3×TgAD mice, 9-months-old): 23.6±4.0%
memory performance after 9 days vs vehicle ([1]; 3×TgAD mice, 9-months-old): significantly better memory performance
final level of learning ([1]; 3×TgAD mice, 12-months-old): 14.9±3.6%
memory deficit vs vehicle-treated non-Tg mice ([1]; 3×TgAD mice, 12-months-old): not reversed
learning rate and final level of learning ([1]; 3×TgAD mice, 15-month-old): did not affect the learning rate nor the final levels of learning
% CR ([1]; 3×TgAD mice, memory phase): 53.96%
memory performance nine days after learning trial ([1]; non-Tg mice): did not significantly augment the memory performance
learning performance ([1]; non-Tg mice): did not augment the learning performance
memory retention ([1]; non-Tg mice, 6 months): no effect
maximal conditioned response rate ([1]; non-Tg mice, 6 months, 10 mg/kg): 30.4±7.7%
final level of learning ([1]; non-Tg mice, 9-months-old): 20.6±4.1%
memory test performance ([1]; non-Tg mice, 9-months-old): no significant effect
final level of learning ([1]; non-Tg mice, 12-months-old): 25.4±6%
memory performance ([1]; non-Tg mice, 12-months-old): modest improved memory performance which was not significantly better than vehicle-treated group
maximum level of learning ([1]; non-Tg mice, 15-months-old): 29.6±5.5%
anti-CD11b/c (OX42) band intensities ([2]; 9-month and 12-month 3×Tg): no significant differences
anti-Iba1 immunofluorescent staining ([2]; hippocampal CA1): lower levels of immunoactivity in THP-treated hippocampal CA1
increase in dividing cell number [3]: 22%
increase in 3H-thymidine uptake relative to control [4]: 80%
increase in neuron number [5]: approximately 30%

Reference: patent US11207331B2, “Agents, compositions and methods for enhancing neurological function” (University of Southern California, priority 2007, dated 2021)
